Reference: patent publication US4496551A (priority 1983, dated 1985)

Legend:
Assay type in all cases: in vivo
[1] = tested on: Phytophthora infestans; test: whole plant or invertebrate; details: Phytophthora infestans, in Solanum lycopersicum, 168 h, read-out: % Control of Tomato Late Blight
[2] = tested on: Cercospora arachidicola; test: peanut early leafspot control on peanut seedlings; details: Mycosphaerella arachidis, 336 h
Method: Compounds of the previous examples were again dissolved in acetone in an amount equal to 6% of the final volume and then suspended at a concentration of 100 ppm in purified water containing 250 ppm of the surfactant TREM 014 (polyhydric alcohol esters). This suspension was sprayed to the point of run-off on peanut seedlings. The following day, the plants were inoculated with a spore suspension of Cercospora arachidicola, causal agent of peanut early leafspot, and incubated in a saturated humidity chamber at 27° for 24 hours and then in a growth room for an additional 14 days, when disease ratings were made. Treated plants from successful treatments had few or no leafspots while the untreated plants had numerous leafspots on each leaf.

[3] = tested on: Helminthosporium maydis; test: southern corn leaf blight control on corn seedlings; details: Bipolaris maydis, 168 h
Method: Compounds of the previous example were again dissolved in acetone in an amount equal to 6% of the final volume and then suspended at a concentration of 100 ppm in purified water containing 250 ppm of the surfactant TREM 014 (polyhydric alcohol esters). This suspension was sprayed to the point of run-off on corn seedlings. The following day, the plants were inoculated with a spore suspension of Helminthosporium maydis, causal agent of southern corn leaf blight, and incubated in a saturated humidity chamber at 20° for 24 hours and then in a growth room for an additional 7 days, when disease ratings were made. Treated plants from successful treatments had few lesions while the untreated plants had numerous lesions on each leaf.

[4] = tested on: Erysiphe cichoracearum; test: cucumber powdery mildew control on cucumber seedlings; details: Golovinomyces cichoracearum, 168 h, 7 days
Method: Compounds of the previous examples were again dissolved in acetone in an amount equal to 6% of the final volume and then suspended at a concentration of 100 ppm in purified water containing 250 ppm of the surfactant TREM 014 (polyhydric alcohol esters). This suspension was sprayed to the point of run-off on cucumber seedlings. The following day, the plants were inoculated with a spore suspension of the fungus Erysiphe cichoracearum, causal agent of cucumber powdery mildew, and incubated in a growth room for 7 days. Disease ratings were then made. Treated plants from successful treatments had little or no powdery mildew in contrast to untreated plants which were covered with powdery mildew.

[5] = tested on: Puccinia recondita var. tritici; test: wheat leaf rust control on wheat seedlings; details: 100 ppm, sprayed day before inoculation
Method: (§1) Compounds of this invention were dissolved in acetone in an amount equal to 6% of the final volume and then suspended at a concentration of 100 ppm in purified water containing 250 ppm of the surfactant TREM 014 (polyhydric alcohol esters). This suspension was sprayed to the point of run-off on wheat seedlings. The following day, the plants were inoculated with a spore suspension of Puccinia recondita var. tritici, causal agent of wheat leaf rust, and incubated in a saturated humidity chamber at 20° for 24 hours and then in a growth room for an additional 7 days, when disease ratings were made. Treated plants from successful treatments had few or no rust pustules while the untreated plants had numerous rust pustules on each leaf.

[6] = tested on: Rhizoctonia solani; test: rice sheath blight control on rice seedlings; details: Rhizoctonia solani, 168 h, 7 days
Method: Several compounds of the previous examples were again dissolved in acetone in an amount equal to 6% of the final volume and then suspended at a concentration of 100 ppm in purified water containing 250 ppm of the surfactant TREM 014 (polyhydric alcohol esters). This suspension was sprayed to the point of run-off on rice seedlings. The following day, the plants were inoculated with a mixture of bran and the mycelium of Rhizoctonia solani, causal agent of sheath blight of rice, and incubated in a growth room for 7 days. Disease ratings were then made. Treated plants from successful treatments had little sheath blight in contrast to untreated plants which were covered with sheath blight.

[7] = tested on: Venturia inaequalis; test: apple scab control on apple seedlings; details: Venturia inaequalis; 100 ppm
Method: as §1, with “apple” for “wheat”, “the fungus Venturia inaequalis,” for “Puccinia recondita var. tritici,”, “apple scab,” for “wheat leaf rust,”, “10-12 days.” for “7 days, when disease ratings were made.”, “apple scab lesions when compared to” for “rust pustules while the”, “which were covered with scab lesions.” for “had numerous rust pustules on each leaf.”

[8] = tested on: Pyricularia oryzae; test: whole plant or invertebrate; details: 168 h, read-out: % Control of Rice Blast

| SMILES | pest or weed control at 100 ppm [1] [%] | pest or weed control at 100 ppm [2] [%] | pest or weed control at 100 ppm [3] [%] | pest or weed control at 100 ppm [4] [%] | pest or weed control at 100 ppm [5] [%] | pest or weed control at 100 ppm [6] [%] | pest or weed control at 100 ppm [7] [%] | pest or weed control at 100 ppm [8] [%] |
| --- | --- | --- | --- | --- | --- | --- | --- | --- |
| COc1ccc([Si](C)(Cn2ccnc2)c2ccc(OC)cc2)cc1 [(1H-Imidazol-1-ylmethyl)[bis(4-methoxyphenyl)]methylsilane] | 0 | 0 | 0 | 50 | 0 | 0 | 50 | 0 |
| CC(C)O[Si](C)(Cn1ccnc1)c1ccccc1 (centres unmarked) [(1H-Imidazol-1-ylmethyl)methyl(phenyl)(2-propoxy)silane] | 0 | 0 | 0 | 90 | 0 | 0 | 0 | 0 |
| COc1cccc([Si](C)(C)Cn2ccnc2)c1OC [(2,3-Dimethoxyphenyl)(1H-imidazol-1-ylmethyl)dimethylsilane] | 0 | 0 | 0 | 100 | 0 | 0 | 0 | 0 |
| C[Si](Cn1ccnc1)(c1ccccc1)c1ccc(Cl)cc1Cl (centres unmarked) [(2,4-Dichlorophenyl)(1H-imidazol-1-ylmethyl)methyl(phenyl)silane] | 0 | 100 | 0 | 100 | 90 | 0 | 80 | 0 |
| COc1cccc(OC)c1[Si](C)(C)Cn1ccnc1 [(2,6-Dimethoxyphenyl)dimethyl(1H-imidazol-1-ylmethyl)silane] | 50 | 0 | 50 | 0 | 0 | 0 | 0 | 0 |
| C[Si](Cn1ccnc1)(c1ccccc1)c1ccccc1Cl (centres unmarked) [(2-Chlorophenyl)(1H-imidazol-1-ylmethyl)methyl(phenyl)silane] | 0 | 100 | 0 | 100 | 0 | 0 | 100 | 0 |
| C[Si](C)(Cn1ccnc1)c1cccc(Cl)c1 [(3-Chlorophenyl)dimethyl(1H-imidazol-1-ylmethyl)silane] | 0 | 0 | 0 | 80 | 80 | 90 | 60 | 0 |
| C[Si](C)(Cn1ccnc1)c1ccc(-c2ccc(Br)cc2)cc1 [(4'-Bromo-1,1'-biphenyl-4-yl)dimethyl(1H-imidazol-1-ylmethyl)silane] | 0 | 90 | 0 | 100 | 100 | 90 | 50 | 90 |
| C[Si](C)(Cn1ccnc1)c1ccc(Br)cc1 [(4-Bromophenyl)(1H-imidazol-1-ylmethyl)dimethylsilane] | 30 | 0 | 0 | 100 | 0 | 0 | 0 | 0 |
| C[Si](Cn1ccnc1)(c1ccccc1)c1ccc(Br)cc1 (centres unmarked) [(4-Bromophenyl)(1H-imidazol-1-ylmethyl)methyl(phenyl)silane] | 0 | 90 | 0 | 100 | 90 | 0 | 30 | 0 |
| C[Si](C)(Cn1ccnc1)c1ccc(S(C)(=O)=O)cc1 [Dimethyl(1H-imidazol-1-ylmethyl)(4-methylsulfonylphenyl)silane] | 0 | 0 | 0 | 0 | 0 | 0 | 80 | 100 |
| CSc1ccc([Si](C)(C)Cn2ccnc2)cc1 [Dimethyl(1H-imidazol-1-ylmethyl)(4-methylthiophenyl)silane] | 0 | 0 | 0 | 100 | 0 | 0 | 0 | 0 |
| CCCCCCCCCCCCCCCCCC[Si](C)(C)Cn1ccnc1 [Dimethyl(1H-imidazol-1-ylmethyl)octadecylsilane] | 0 | 0 | 0 | 0 | 0 | 100 | 80 | 80 |
| CC(C)(C)c1ccc([Si](C)(C)Cn2ccnc2)cc1 [[4-(1,1-Dimethylethyl)phenyl](1H-imidazol-1-ylmethyl)dimethylsilane] | 0 | 0 | 70 | 80 | 0 | 0 | 50 | 80 |
| C[Si](Cn1ccnc1)(c1ccccc1Cl)c1ccccc1Cl [[bis(2-Chlorophenyl)](1H-imidazol-1-ylmethyl)methylsilane] | 60 | 100 | 90 | 100 | 0 | 40 | 60 | 90 |
| C[Si](Cn1ccnc1)(c1ccc(Br)cc1)c1ccc(Br)cc1 [[bis(4-Bromophenyl)](1H-imidazol-1-ylmethyl)methylsilane] | 0 | 50 | 0 | 100 | 0 | 0 | 50 | 80 |
